Experimental data as given in US20100260680A1, “NOVEL BONE MASS INCREASING AGENT” (ORIENTAL YEAST CO., LTD., priority 2007, published 2010).
“Also recorded” adds a separate entry of the source. Bridges are numbered along the chain shown (N, C = ends). Where no end group is shown, it is not given here.

How the values were obtained:
[1] = system: Human mesenchymal stem cells; experiment: ALP activity determination in human mesenchymal stem cells; format: cell-based; conditions: Day 7, differentiation medium and maintenance medium
Protocol: Human mesenchymal stem cells were seeded on a 96-well plate (1×10^3 cells/well) (Nunc) and a 48-well plate (2.4×10^3 cells/well) (IWAKI). After 24 hours, the culture supernatant was removed from each plate and an osteoblast differentiation induction medium (Lonza) was introduced thereonto. The medium was replaced with new medium every 3 or 4 days.
At such time, peptide D was added at a concentration of 100 μM (group treated with peptide D). As a negative control, the control peptide was added at the same concentration.
Seven days after differentiation, the culture supernatant was removed from each plate and the cells were fixed with an acetone/ethanol solution. The ALP activity was determined using p-nitrophenyl phosphate as a substrate. Specifically, a carbonate buffer (5 mM MgCl2, 50 mM NaHCO3) containing p-nitrophenyl phosphate (Nacalai) (1 mg/mL) was added to each well (100 μL/well), followed by incubation at 37° C. Then, the OD value at 405 nm was determined with the use of a microplate reader (BMG Labtech) for each well.
Human mesenchymal stem cells (hMSC; Lonza) were seeded on a 96-well plate (Nunc) (2×10^3 cells/well). After cell adhesion had taken place, the medium was replaced with a differentiation medium prepared by adding 100 nM dexamethasone (SIGMA), 10 mM BGP(SIGMA), and 50 μg/mL ascorbic acid to a dedicated maintenance medium (Lonza). […]

[2] = system: MC3T3-E1 cells; experiment: Alizarin red S staining (calcification) of MC3T3-E1 cells; format: cell-based, mouse; conditions: 300 μM; Day 21; differentiation medium and maintenance medium
Protocol: On Day 21 after differentiation, the cells were washed with PBS, followed by fixation with a 10% neutral buffer formalin solution.
The cells were washed with water after removal of the fixative solution. A 1% alizarin red S stain solution (Nacalai) (150 μL) was added thereto. The plate was left at room temperature for 3 minutes. Thereafter, the stain solution was discarded, followed by washing with water and drying. Then, microscopic observation was carried out.
Cells mixed with 10% FBS+αMEM (GIBCO) were seeded on a 96-well plate (8×10^3 cells/well) and a 48-well plate (2×10^4 cells/well). The culture supernatant of each plate was replaced with 10% FBS+αMEM containing 5 mM β glycerophosphoric acid (SIGMA)+10 μg/mL sodium ascorbate (SIGMA) 48 hours later. Then, the medium was replaced with new medium every 3 or 4 days. As a control, MC3T3-E1 was cultured with the use of 10% FBS+αMEM as a maintenance medium. Upon medium replacement, a peptide was added to each plate at a concentration of 300 μM, ALP activity determination and alizarin red S staining were carried out by the method described in Example 1 on Days 7 and 21.

[3] = system: GSK3β; experiment: Western blotting of GSK3β phosphorylation in MC3T3-E1 cells; format: cell-based, mouse; conditions: 1 and 3 hours after the addition; 200 μM peptide D or 200 ng/ml BMP-2
Protocol: MC3T3-E1 cells mixed with 10% FBS+αMEM (SIGMA) were seeded on a 6-well plate (7.5×10^4 cells/well). […] The medium was removed at the respective time points shown in the relevant figures. PBS was added to the cells, and the cells were collected with a scraper (Falcon). A cell pellet was obtained via centrifugation at 1200 rpm for 5 min at 4° C. RIPA buffer (100 μL) was added to the collected pellet, for dissolution of the cellular membrane. Further, the resultant was centrifuged under conditions of 14500 rpm for 25 min at 4° C. The supernatant was collected as a cell extract. A portion of the cell extract was used for quantification of the protein concentration with the use of a BCA protein assay kit (PIERCE). For SDS-PAGE, a sample buffer in an amount that was ¼ that of the cell extract (Fermentas) was added thereto, followed by heating at 95° C. for 5 min. The prepared sample was applied in an amount of 7.5 or 10 μg to 10% polyacrylamide gel (BioRad), followed by electrophoresis at 170 V for 1 hour. After electrophoresis, the electrophoresed sample was transferred to a PVDF membrane (Millipore) at 80 mA for 40 min. The membrane was shaken in a blocking solution (Nacalai) at room temperature for 1 hour and then a primary antibody was added thereto, followed by shaking at room temperature for 1 hour at 4° C. for 12 hours. […]

[4] = system: RANKL knock-down MC3T3-E1 cells; experiment: ALP activity in RANKL knock-down MC3T3-E1 cells; format: cell-based, mouse; conditions: KD1 and KD2; 200 μM peptide D or 200 ng/ml BMP-2; 5 days
[5] = system: mouse osteoblasts; experiment: Proliferative response of mouse osteoblasts (WST-1); format: cell-based; conditions: 100 μM peptide D (acetate) or 3 μg/mL antibody; with or without 5 ng/mL BMP-2; 72-hour culture
Protocol: Mouse osteoblasts mixed with 10% FBS+αMEM (SIGMA) were seeded on a 96-well plate (2×10^3 cells/well). After cell adhesion had taken place, the medium was removed therefrom. […] After 72-hour culture, WST-1 (Roche) was added thereto in an amount 1/10 that of each medium, followed by incubation at 37° C. for 3 hours. Then, the OD value (450 nm) for each well was determined with a microplate reader (BMG Labtech) (reference wavelength: 595 nm).

[6] = system: MC3T3-E1 cells; experiment: RT-PCR verification of gene expression in MC3T3-E1 cells; format: cell-based, mouse

## peptide D: cyclic peptide of SEQ ID NO: 7, 9 amino acids, two cysteine residues bound via a disulfide bond; binds to RANKL (YCWSQYLCY; disulfide 2-8 (inferred))
[1]; 300 μM
  ALP activity: significant increase in ALP activity
[1]; peptide D 100 μM
  ALP activity: significantly increased
[2]
  alizarin red staining (calcification): strong degree of alizarin red staining
[3]
  phosphorylation of GSK3β: confirmed to be induced
[4]
  ALP activity enhancement under RANKL knockdown: significantly reduced
[5]
  mouse osteoblast proliferation (WST-1): promoted mouse osteoblast proliferation; also recorded: weak effects
[6]; 200 μM peptide D (acetate)
  gene expression levels of IRS1, PDGFRβ, PDGFc, FGFR2, FGF2, CTGF, BMP-4 and IGF-2 (RT-PCR): significant increases in the gene expression levels
[6]; 200 μM peptide D (acetate) or 150 ng/ml BMP-2
  gene expression levels of ALP, Col1 and OC (RT-PCR): significant increases in the gene expression levels
